Experimental data reported in patent US20180193490A1, “Beta Amyloid Staging” (GE HEALTHCARE LIMITED, priority 2015, published 2018).

Target: T1, beta amyloid (Aβ) plaques in the brain (Homo sapiens, UniProt P05067)
T1 construct: from tissue; host or cells: brain of living subjects (cortex and striatum), in vivo PET
Test: GE067-026 blinded image evaluation (BIE) of amyloid PET images, separate cortical and striatal assessment
Assay type: in vivo
Details: for Subjects classified C+S+ by BIE assessment / Subjects classified C+S− by BIE assessment / Subjects classified C−S+ by BIE assessment / Subjects classified C−S− by BIE assessment: GE067-026 data set, N = 106; for BIE assessments C+S+ against striatal plaque count by histopathology / BIE assessments C+S− against striatal plaque count by histopathology / BIE assessments C−S− against striatal plaque count by histopathology: N = 108 subjects and 5 readers
Text: The data presented explore the use of separate cortical and striatal assessments to aid the Thal (amyloid) phase assignation to in life subjects. The data sets used are from a Flutemetamol (18F) Injection Phase III clinical trial. In this trial PET image assessment was compared to histopathological assessment of amyloid pathology from autopsy. The available data for a preliminary analysis of amyloidosis staging using separate cortical and striatal assessments comes from two sources: • (1) The blinded image evaluations (BIEs) from the GE067-026 clinical trial (NCT02090855) • (2) Provisional SUVR determinations in post-hoc analyses of the GE067-026 data During the BIEs for the above trial, 5 independent readers assessed each of 106 amyloid PET images as abnormal or normal. These dichotomous assessments formed the primary analysis for the trial. However, the individual cortical and striatal assessments were recorded and were re-analysed to estimate the cortical and striatal status separately. For each subject, each of the five readers rated 4 cortical regions and 1 striatal region as Aβ positive or Aβ negative.^1 ^1 All regions assessed are bilateral. Readers assessed images bilaterally—left and right hemispheres—but recoded only one result for each of the 5 bilateral regions. Applying the same general principle that if any of the 4 cortical regions are positive this confers cortical positivity, separate cortical and striatal assessments were determined for each case.

T1 sequence (P05067 672-713 limits assumed): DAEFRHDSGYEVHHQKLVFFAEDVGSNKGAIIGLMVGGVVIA

Share of C+S− cases that were phase 3 (BIE majority assessment): 75%
Cases identified as C+S− by Majority assessment (BIE majority, all Thal phases): 6
Subjects classified C+S+ by BIE assessment (Reader A): 73
Subjects classified C+S− by BIE assessment (Reader A): 5
Subjects classified C−S+ by BIE assessment (Reader A): 1
Subjects classified C−S− by BIE assessment (Reader A): 28
Subjects classified C+S+ by BIE assessment (Reader B): 68
Subjects classified C+S− by BIE assessment (Reader B): 4
Subjects classified C−S+ by BIE assessment (Reader B): 0
Subjects classified C−S− by BIE assessment (Reader B): 35
Subjects classified C+S+ by BIE assessment (Reader C): 64
Subjects classified C+S− by BIE assessment (Reader C): 6
Subjects classified C−S+ by BIE assessment (Reader C): 0
Subjects classified C−S− by BIE assessment (Reader C): 37
Subjects classified C+S+ by BIE assessment (Reader D): 35
Subjects classified C+S− by BIE assessment (Reader D): 38
Subjects classified C−S+ by BIE assessment (Reader D): 0
Subjects classified C−S− by BIE assessment (Reader D): 34
Subjects classified C+S+ by BIE assessment (Reader E): 70
Subjects classified C+S− by BIE assessment (Reader E): 5
Subjects classified C−S+ by BIE assessment (Reader E): 2
Subjects classified C−S− by BIE assessment (Reader E): 30
BIE assessments C+S+ against striatal plaque count by histopathology (STR Plaques Frequent): 289
BIE assessments C+S− against striatal plaque count by histopathology (STR Plaques Frequent): 37
BIE assessments C−S− against striatal plaque count by histopathology (STR Plaques Frequent): 23
BIE assessments C+S+ against striatal plaque count by histopathology (STR Plaques Moderate): 18
BIE assessments C+S− against striatal plaque count by histopathology (STR Plaques Moderate): 17
BIE assessments C−S− against striatal plaque count by histopathology (STR Plaques Moderate): 24
BIE assessments C+S+ against striatal plaque count by histopathology (STR Plaques None): 0
BIE assessments C+S− against striatal plaque count by histopathology (STR Plaques None): 1
BIE assessments C−S− against striatal plaque count by histopathology (STR Plaques None): 98
BIE assessments C+S+ against striatal plaque count by histopathology (STR Plaques Sparse): 0
BIE assessments C+S− against striatal plaque count by histopathology (STR Plaques Sparse): 1
BIE assessments C−S− against striatal plaque count by histopathology (STR Plaques Sparse): 19
Cases categorised C+S+ by BIE majority (Thal (amyloid) Phase 0): 0
Cases categorised C+S− by BIE majority (Thal (amyloid) Phase 0): 0
Cases categorised C−S+ by BIE majority (Thal (amyloid) Phase 0): 0
Cases categorised C−S− by BIE majority (Thal (amyloid) Phase 0): 7
Cases categorised C+S+ by BIE majority (Thal (amyloid) Phase 1): 0
Cases categorised C+S− by BIE majority (Thal (amyloid) Phase 1): 0
Cases categorised C−S+ by BIE majority (Thal (amyloid) Phase 1): 0
Cases categorised C−S− by BIE majority (Thal (amyloid) Phase 1): 10
Cases categorised C+S+ by BIE majority (Thal (amyloid) Phase 2): 0
Cases categorised C+S− by BIE majority (Thal (amyloid) Phase 2): 0
Cases categorised C−S+ by BIE majority (Thal (amyloid) Phase 2): 0
Cases categorised C−S− by BIE majority (Thal (amyloid) Phase 2): 5
Cases categorised C+S+ by BIE majority (Thal (amyloid) Phase 3): 3
Cases categorised C+S− by BIE majority (Thal (amyloid) Phase 3): 4
Cases categorised C−S+ by BIE majority (Thal (amyloid) Phase 3): 0
Cases categorised C−S− by BIE majority (Thal (amyloid) Phase 3): 7
Cases categorised C+S+ by BIE majority (Thal (amyloid) Phase 4): 17
Cases categorised C+S− by BIE majority (Thal (amyloid) Phase 4): 2
Cases categorised C−S+ by BIE majority (Thal (amyloid) Phase 4): 0
Cases categorised C−S− by BIE majority (Thal (amyloid) Phase 4): 5
Cases categorised C+S+ by BIE majority (Thal (amyloid) Phase 5): 46
Cases categorised C+S− by BIE majority (Thal (amyloid) Phase 5): 0
Cases categorised C−S+ by BIE majority (Thal (amyloid) Phase 5): 0
Cases categorised C−S− by BIE majority (Thal (amyloid) Phase 5): 0
SMILES: CNc1ccc(-c2nc3ccc(O)cc3s2)cc1F [Flutemetamol]
